Results on 1 substance are retold here after US20160202234A1, “METHOD FOR EVALUATING, VIA BIODOSIMETRY, THE I[…] RECEIVED BY A PERSON SUBJECTED TO IONIZING RADIATION” (ACUBENS, priority 2013, published 2016).

The experiment concerns two different cell lines, respectively sensitive S and resistant R. Briefly: ratio of apoptotic cells as a function of NCS concentration, compared with irradiation dose. The class given is cell-based. The conditions noted are these: concentration of 1 nM of neocarzinostatin. On the procedure: FIG. 27 is a graph showing the change in the amount of apoptotic cells in a mixture as a function of the quantity of NCS in this mixture,
FIG. 28 is a graph showing the change in the number of apoptotic cells as a function of the irradiation dose received by an individual,
The substance used is for example neocarzinostatin (NCS). […] These graphs made it possible to determine in particular that a concentration of 1 nM of neocarzinostatin is equivalent to, that is to say produces the same effect as, an irradiation dose of 1.2 Gy. Several hair samplings are carried out on the same region of an individual, along with a plurality of blood samplings. Two of the samples are subjected to the action of NCS at a known dose, for example equivalent to 1 Gy, in reaction wells in a plate. Each sample can be treated and analysed, as described previously. One of the two samples is analysed immediately at the same time as a sample that has not received treatment, and the second is analysed after a given period Δt, for example 1 hour.

As to neocarzinostatin, the “irradiation dose equivalent to (produces the same effect as) the neocarzinostatin concentration” value is reported as 1.2 Gy.
